Patent publication US9975860B2, “Anti-angiogenic compounds” (UNIVERSITY COLLEGE DUBLIN—NATIONAL UNIVERSITY OF IRELAND, …, priority 2014, dated 2018)
Entries after “also recorded” stand apart in the source; their conditions may differ.

Experiments:
[1] = system: oxygen induced mouse model of retinopathy; test: Mouse oxygen-induced retinopathy model of neovascularisation; format: in vivo; settings: 5 and 20 μM; intravitreal injection on P12, retinas analysed P17; mouse OIR; hydrochloride
Description: The mouse oxygen-induced retinopathy model was used to test the anti-angiogenic activity of compounds 4, 12 and 18. Mouse pups (together with their dams) were placed in 75% oxygen from postnatal day (P) 7 to P12, causing a regression of their retinal blood vessels. On P12, pups were placed back in normoxia (21%) causing a regrowth of retinal blood vessels. Pups received an intravitreal injection on P12, of compound 4, 12, 18 or vehicle control—Hank's Balanced Salt Solution, coinciding with their return to normoxia. Pups were culled on P17 and enucleated. Eyes were fixed in 4% paraformaldehyde, washed and dissected to form retinal flatmounts. Flatmounts were stained with isolectin to visualise blood vessels and imaged. The central avascular area (lacking a network of blood vessels) was quantified using FIJI image analysis software.

mouse aortic ring = test: Ex vivo mouse aortic ring assay (sprout formation); settings: 10 μM; C57/BL6 mouse aortic rings in matrigel; vs 0.1% DMSO; hydrochloride
Protocol: Aortae from sex matched C57/BL6 littermates were cleansed of adipose tissue, cut into 2 mm rings and immersed in matrigel. Aortic rings (6 per experiment) were treated with 0.1% DMSO (vehicle control/VC) or with 10 μM of Compound 4, Compound 12, Compound 15 or Compound 20. Sprouts from the perimeter of the aortic ring were counted and quantified as percentage of vehicle control (VC).

[2] = system: intersegmental vasculature in zebrafish; test: Quantification of intersegmental vessel number in zebrafish; format: in vivo; settings: 10 μM; zebrafish embryos treated 6 hpf to 48 hpf
Protocol: At 6 hours post fertilisation, 5 embryos per well were placed in 400 μL of embryo medium/0.1% DMSO and incubated with 10 μM compound at 28° C. on a 14 h light/10 h dark cycle. At 48 hpf larvae were manually dechorionated, euthanised, and fixed in 4% PFA at 4° C. overnight before analysis. The larvae were then washed with PBS and transferred to depression slides for observation under epi-fluorescence in an Olympus SZX16 fluorescent microscope. The number of intersegmental vessels was counted and the average number was graphed for each drug.
(§1) All experimental protocols were carried out as per example 1 and 2. Briefly, zebrafish larvae were treated with 10 μM of AT-051/41206012 (chemical name 2-[2-(2-methoxyphenyl)ethenyl]pyrazine) purchased from Specs (The Netherlands). At 6 or 48 hours post fertilisation (hpf), 5 embryos per well were placed in 400 μl of Embryo Medium/0.1% DMSO and incubated with 10 μM AT-051/41206012 at 28° C. on a 14 h light/10 h dark cycle. Larvae were treated from 6-48 hpf (intersegmental vessel study) or from 48 to 120 hpf (primary hyaloid vessel study). At the end of the study, larvae were euthanized and fixed in 4% PFA at 4° C. overnight before analysis.
(§2) The number of intersegmental vessels was counted and the average number was graphed for each drug. Right lenses were dissected from the larvae and transferred to depression slides for observation and the number of primary hyaloid vessels radiating from the back of the lens (3-4 main branches at 5 dpf in controls and previously described), was counted and the average number was graphed for each drug.

[3] = system: primary hyaloid vessels in zebrafish; test: Quantification of primary hyaloid vasculature branch number in Tg(fli1:EGFP) zebrafish; format: in vivo
Protocol: All experiments were carried out under ethical approval granted by the UCD animal research ethics committee. Tg(fli1:EGFP) zebrafish were maintained according to standard procedures on a 14 hr light/10 hr dark cycle at 28° C. Embryos were obtained by natural spawning and developmental stages established by time and morphological criteria. At 48 hours post fertilisation (hpf), 5 embryos per well were placed in 400 μl of Embryo Medium/0.1% DMSO and incubated with compound (typically, 10 μM) at 28° C. on a 14 h light/10 h dark cycle. At 5 days post fertilisation (dpf), larvae were euthanised, and fixed in 4% PFA at 4° C. overnight before analysis.
Prior to analysis of the intraocular vasculature, the control and treated larvae were observed under an Olympus SZX16 stereo zoom microscope and screened for general malformations. Overall patterning of the vasculature (fin, gut and intersegmental vessels) was examined for abnormalities. Right lenses were dissected from the larvae and transferred to depression slides for observation under epi-fluorescence in the Olympus SZX16. Patterning of the hyaloid vessels on the treated larval lenses was compared to 0.1% DMSO controls and the archetypal pattern previously described (Alvarez et al., 2007; Alvarez et al., 2009). The number of primary vessels radiating from the back of the lens (3-4 main branches at 5 dpf in controls and previously described), was counted and the average number was graphed for each drug.
as §1, §2

`C/C(=C\c1ccccc1O)c1cnccn1.Cl` [Compound 12, (E)-2-[2-(Pyrazin-2-yl)prop-1-enyl]phenol hydrochloride] was tested, and the “retinal neovascularisation / revascularisation (central avascular area)” value [1] was “significantly reduces retinal neovascularisation; also recorded: inhibits retinal revascularisation in a statistically significant manner”, the “angiogenesis (sprout formation) in aortic rings” value (mouse aortic ring) was “block angiogenesis (sprout formation); also recorded: inhibit the formation of sprouts in a statistically significant manner” and the “inhibition of developmental angiogenesis of intersegmental vessels (number of intersegmental vessels)” value [2] was “inhibit developmental angiogenesis of zebrafish intersegmental vessels in a statistically significant manner”. For the same compound, the “inhibition of developmental angiogenesis of the hyaloid vasculature (number of primary hyaloid vessels)” value ([3]; 10 μM, zebrafish larvae treated 48 hpf to 5 dpf, vs 0.1% DMSO control) was “inhibit developmental angiogenesis of the zebrafish hyaloid vasculature in a statistically significant manner” and the “inhibition of developmental angiogenesis of the hyaloid vasculature (number of primary hyaloid vessels)” value ([3]; concentrations below 10 μM (range 1, 2.5, 5, 7.5 and 10 μM tested), zebrafish larvae 48 hpf to 5 dpf) was “inhibit developmental angiogenesis of the zebrafish hyaloid vasculature in a statistically significant manner”.
